According to patent US20030170606A1, “High-throughput screening assays for modulators of mitochondrial membrane potential” (priority 1999, published 2003):

System: UCP1
Assay: DiSC3 fluorescence assay in permeabilized UCP1-expressing yeast cells (YUCP)
Format: cell-based
Procedure: To make the cells permeable to externally added compounds, the yeast cells were treated with zymolyase. The spheroplasts were cultured in full media for 0.5 hours and pelleted. The pellets were resuspended in a lysis buffer and stored at about −80° C. The permeabilized cells can be kept in this way for at least one half year without loss of activity.
To assess the effects of known modulators of uncoupling activity and of uncoupling protein activity, the following fluorescence intensity measurements were carried out: Permeabilized cells were combined with the fluorescent dye DiSC3 in buffer and incubated for about 5-60 min., usually less than about 30 min. The resulting fluorescence intensity (λexc=620 nm, λem=670 nm) corresponded to the basal ΔΨm. The mitochondria accumulate the fluorescent dye into the matrix in proportion to the ΔΨm, and at basal ΔΨm, the DiSC3 fluorescence is substantially quenched.
A Beckman Multimek™ 96 Automated 96-channel Pipettor was programmed to mix test compounds from master plates with the buffer containing freshly premixed permeabilized cells (0.1 OD) and DiSC3 (0.1 μM) and transfer this mixture to black 96-well plates. An LJL analyst was used in the fluorescence intensity mode to measure the DiSC3 fluorescence. […] A total of about 3,300 compounds were screened in this way to test the feasibility of this method.
Data are presented in FIG. 7B after transformation of the fluorescence data according to (Fcompd/Fcontrol−1), where Fcompd is the fluorescence intensity of a given well (as shown in FIG. 7A), and Fcontrol is the basal fluorescence obtained as an average intensity in column 1 where no compound was added (instead an equivalent volume of dimethyl sulfoxide (DMSO) was added).

`CCCCCCCCCCCCCCC(Br)C(=O)O` (stereo not shown) [BrPalm, 2-bromo-palmitate] was tested, and the “DiSC3 fluorescence level upon addition of compound” value (5 to 10 μM) was “higher fluorescence level”.
For `N#CC(C#N)=NNc1ccc(Cl)cc1` [CCCP, carbonyl-cyanide p-chlorophenylhydrazone], the “DiSC3 fluorescence level upon addition of compound” value (1 μM) was “fluorescence reaches a maximum level”.
With `Nc1nc2c(ncn2[C@@H]2O[C@H](COP(=O)(O)OP(=O)(O)O)[C@@H](O)[C@H]2O)c(=O)[nH]1` [GDP] the “DiSC3 fluorescence level upon addition of compound” value (100 μM added in the presence of BrPalm) was “reverted back to the level close to basal intensity”.
In the case of `[Cl-].[K+]` [KCl], the “change in DiSC3 fluorescence intensity (plasma membrane potential control)” value (0 to 125 mM) is reported as “no change in fluorescence intensity”.
